Experiments:
Assay in all cases: relative viability (nuclei count vs DMSO), 5 days (fraction); higher = more cells survive
[1] = compound: C[C@]1(O)C[C@@H](c2nc(-c3ccc4ccc(-c5ccccc5)nc4c3)c3c(N)nccn32)C1 [Linsitinib] + CC(C)C[C@H](NC(=O)[C@H](Cc1ccccc1)NC(=O)c1cnccn1)B(O)O [Bortezomib] (partner 0.002 µM)
In short: (§1)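 The day after seeding in 1536-well plates, lung cancer cell lines were treated by pin tool with a single drug, or with a fixed anchor-drug dose together with five library-drug doses (not always all listed) in √10 steps. After 5 days, a combined fix-and-stain solution (final 0.05% Triton X-100, 1% formaldehyde, 1 ug/ml Hoechst) was added. Nuclei counted on 4× images gave relative viability as treated counts over vehicle counts, reported as the median of duplicate plates.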

[2] = compound: C[C@]1(O)C[C@@H](c2nc(-c3ccc4ccc(-c5ccccc5)nc4c3)c3c(N)nccn32)C1 [Linsitinib] + Cc1nc(NC(=O)N2CCC[C@H]2C(N)=O)sc1-c1ccnc(C(C)(C)C(F)(F)F)c1 [Alpelisib] (partner 2 µM)
In short: as §1

[3] = compound: Cc1ccc(C(=O)N(CCCN)[C@@H](c2nc3cc(Cl)ccc3c(=O)n2Cc2ccccc2)C(C)C)cc1 [Ispinesib] + COc1cc2c(Oc3ccc(NC(=O)C4(C(=O)Nc5ccc(F)cc5)CC4)cc3F)ccnc2cc1OCCCN1CCOCC1 [Foretinib] (partner 0.25 µM)
In short: as §1

[4] = compound: Cc1ccc(C(=O)N(CCCN)[C@@H](c2nc3cc(Cl)ccc3c(=O)n2Cc2ccccc2)C(C)C)cc1 [Ispinesib] + O=C(CCCCCCC(=O)Nc1ccccc1)NO [Vorinostat] (partner 1 µM)
In short: as §1

UMC-11
relative viability ([1]; first compound 0.01 µM): 0.693
relative viability ([1]; first compound 0.03162 µM): 0.621
relative viability ([1]; first compound 0.1 µM): 0.829
relative viability ([1]; first compound 1 µM): 0.752
relative viability ([2]; first compound 0.01 µM): 0.958
relative viability ([2]; first compound 0.03162 µM): 0.951
relative viability ([2]; first compound 0.1 µM): 0.961
relative viability ([2]; first compound 1 µM): 0.969
relative viability ([3]; first compound 0.001 µM): 1.03
relative viability ([3]; first compound 0.003162 µM): 0.995
relative viability ([3]; first compound 0.01 µM): 0.889
relative viability ([3]; first compound 0.03162 µM): 0.322
relative viability ([3]; first compound 0.1 µM): 0.233
relative viability ([4]; first compound 0.001 µM): 0.308
relative viability ([4]; first compound 0.003162 µM): 0.459
relative viability ([4]; first compound 0.01 µM): 0.327
relative viability ([4]; first compound 0.03162 µM): 0.281
relative viability ([4]; first compound 0.1 µM): 0.319

From the supplement of paper PMC10307832
